Laboratory results as given in publication PMC11209715, “A novel selenium analog of HDACi-based twin drug induces apoptosis and cell cycle arrest via CDC25A to improve prostate cancer therapy” (Theranostics, 2024).

Tests used:
HT-29 = assay: CCK-8 cell viability assay, HT-29; type: cell-based; conditions: Homo sapiens, Figure 2A
Experimental: (§1) Human cancer cell lines (PC3, DU145, A549, H1299, MDA-MB-231, HepG2, PANC-1, MIA PaCa-2, HT-29, HCT116, and HeLa) were obtained from the Cell Resource Center, Peking Union Medical College (National Infrastructure of Cell Line Resource, NSTI). These cell lines were cultured according to NSTI culture guidelines and cultured in RPMI 1640 medium (Biological Industries, Israel) supplemented with 10% heat-inactivated fetal bovine serum (FBS; BI; Israel), penicillin/streptomycin (P/S; 100 IU/ml; Gibco, 10378016) in an incubator at 37 °C and 5% CO2.
(§2) Cell cytotoxicity assays were performed in 96-well plates (NEST) to determine the growth kinetics of SeSA-DCA-treated cells using CCK-8 reagent (Shandong Sparkjade Biotechnology Co., Ltd., CT0001-B). Cells (5000 cells/well) were treated with DMSO or different drugs. Each treatment was performed in five replicates. To assess cell growth, 10 μL of CCK-8 reagent was introduced to every well and allowed to incubate for 4 h. Following that, the absorbance value for each well was measured at 450 nm. Every experiment was duplicated no less than thrice.

[1] = Drug toxicity test: blood biochemistry in nude mice; type: in vivo; parameters: TBIL / BUN: unit not given here; conditions: serum of nude mice; for ALT: dose (DCA 100, SAHA 20, SeSAHA 20, Docetaxel 10, SeSA-DCA 20 mg/kg); for ALT / ALP / AST: in U/L (unit assumed); for ALB / GLOB / TP: in g/L (unit assumed)
Experimental: Blood samples from each mouse were kept at room temperature for 3 h and centrifuged at 8000 rpm for 15 min to produce serum. The samples were then placed on the blood routine detector for biochemical analysis.

PC3 cells [2] = assay: CCK-8 cell viability assay, PC3; type: cell-based; conditions: Homo sapiens, PC-3, Figure 2B and text
Experimental: as §1, §2

PC3 cells [3] = assay: RNA-sequencing and GSEA of treated PC3 cells; type: cell-based, Human; conditions: 48 h
Experimental: PC3 cells were seeded at a density of 5 × 10^6 cells/flask in two 75 cm^2 flasks. Treatment with drugs for 48 h was performed in one flask, whereas the other was used as a control. Total RNA was isolated using TRIZOL, and the total RNA was extracted from the sample with RNA extraction kit (Accurate Biotechnology (Hunan) Co., Ltd. ChangSha, China). DNA was digested with DNase (GenScript, E00053). Magnetic beads with Oligo (dT) were used to enrich eukaryotic mRNA, and cDNA library construction and sequencing were performed on the Illumina HiSeq Xten platform. After quality inspection, raw data (raw reads) were processed using Trimmomatic. Reads containing ploy-N and low-quality reads were removed to obtain clean reads. The clean reads were then mapped to the reference genome using HISAT2. The FPKM value of each gene was calculated using cufflinks, and the read counts of each gene were obtained by htseq-count. DEGs were identified using DESeq. […] Hierarchical cluster analysis of DEGs was performed to explore the gene expression patterns. KEGG pathway enrichment analysis and PPI and IPA analyses of the DEGs were performed.
GSEA was conducted using GSEA software.

HDAC = assay: Inhibitory activity of SeSAHA compared with SAHA (data not shown); conditions: preliminary results
[4] = versus DMSO, adjusted p-value < 0.05, |log2foldchange| > 1

| Compound | IC50 (HT-29) | A/G [1] | BUN [1] | TBIL [1] | ALT [1] | ALP [1] | AST [1] | ALB [1] | GLOB [1] | TP [1] | IC50 (PC3 cells [2]) | changes in gene expression compared with DMSO (PC3 cells [3]) | downregulated transcripts/genes (PC3 cells [3]; [4]) | upregulated transcripts/genes (PC3 cells [3]; [4]) | inhibitory effect relative to SAHA (HDAC) |
| --- | --- | --- | --- | --- | --- | --- | --- | --- | --- | --- | --- | --- | --- | --- | --- |
| O=C(CCCCCC[Se][Se]CCCCCCC(=O)Nc1cccc(COC(=O)C(Cl)Cl)c1)Nc1cccc(COC(=O)C(Cl)Cl)c1 | 8.71 µM | – | – | – | – | – | – | – | – | – | – | – | – | – | – |
| O=C(O)C(Cl)Cl [DCA, Dichloroacetate] | – | 0.36 ± 0.02 | 10.5 ± 0.88 | 0.49 ± 0.06 | 37.5 ± 4.5 | 36.2 ± 3.6 | 223.4 ± 35 | 13.45 ± 0.18 | 37.1 ± 0.22 | 51.5 ± 0.45 | > 18 mM | minimal changes | – | – | – |
| CC(=O)O[C@@]12CO[C@@H]1C[C@H](O)[C@@]1(C)C(=O)[C@H](O)C3=C(C)[C@@H](OC(=O)[C@H](O)[C@@H](NC(=O)OC(C)(C)C)c4ccccc4)C[C@@](O)([C@@H](OC(=O)c4ccccc4)[C@H]21)C3(C)C [Docetaxel, docetaxel] | – | 0.38 ± 0.04 | 9.8 ± 0.8 | 0.7 ± 0.07 | 46.4 ± 5.7 | 34.2 ± 8.2 | 251.8 ± 48.3 | 14.6 ± 0.6 | 38.3 ± 3.1 | 52.8 ± 4.1 | – | – | – | – | – |
| O=C(CCCCCCC(=O)Nc1ccccc1)NO [SAHA, suberoylanilide hydroxamic acid] | – | – | 7.9 ± 1.5 | 0.8 ± 0.17 | 53.5 ± 5.5 | 34.3 ± 3.3 | 285.3 ± 40.6 | 15.8 ± 0.6 | 35.9 ± 3.6 | 51.7 ± 2.5 | – | – | 1573 | 2,024 | – |
| O=C(CCCCCC[Se][Se]CCCCCCC(=O)Nc1cccc(CO)c1)Nc1cccc(CO)c1 [SeSAHA] | – | 0.4 ± 0.07 | 6.7 ± 0.7 | 0.6 ± 0.07 | 49.3 ± 6.7 | 36.5 ± 4.3 | 235.5 ± 40.3 | 15.4 ± 2.1 | 38.4 ± 1.1 | 53.7 ± 0.3 | > 0.0018 mM | – | – | – | more than 10 fold |
